Results: ChEMBL document CHEMBL2163212, “Antivirals targeting influenza A virus” (J Med Chem, 2012)

Legend:
Influenza A virus = assay: Antiviral activity against Influenza A virus containing Matrix protein 2 V27A mutant by plaque reduction assay; assay type: functional, organism-based
Matrix protein 2 = Matrix protein 2 (Influenza A virus, UniProt P06821, V27A); assay: Inhibition of Influenza A virus Matrix protein 2 V27A mutant

## CN1CCC2(C1)C1CC3CC(C1)CC2C3 (configuration not stated) [SPIROAMANTADINE]
Influenza A virus
  IC50: 1000 nM
Matrix protein 2
  IC50: 300 nM
